Test results: paper PMC10604274, “The Antiviral Activity of Varenicline against Dengue Virus Replication during the Post-Entry Stage” (Biomedicines, 2023)

Target: T1, DENV-2 NS2B-NS3 protease (Dengue virus 2 Thailand/16681/84, UniProt P29990)
T1 construct: NS2BNS3 gene RT-PCR amplified from DENV-2 16681 RNA genome; AVI tag in forward primer, F2A peptide in reverse primer; in pcDNA3.1-HisC (pcDNA-DEN2_NS2BNS3), transiently expressed in HEK293T; parts of the genome polyprotein; with Serine protease subunit NS2B
Assay: cell-based

T1 sequence (P29990 1346-2093 limits assumed): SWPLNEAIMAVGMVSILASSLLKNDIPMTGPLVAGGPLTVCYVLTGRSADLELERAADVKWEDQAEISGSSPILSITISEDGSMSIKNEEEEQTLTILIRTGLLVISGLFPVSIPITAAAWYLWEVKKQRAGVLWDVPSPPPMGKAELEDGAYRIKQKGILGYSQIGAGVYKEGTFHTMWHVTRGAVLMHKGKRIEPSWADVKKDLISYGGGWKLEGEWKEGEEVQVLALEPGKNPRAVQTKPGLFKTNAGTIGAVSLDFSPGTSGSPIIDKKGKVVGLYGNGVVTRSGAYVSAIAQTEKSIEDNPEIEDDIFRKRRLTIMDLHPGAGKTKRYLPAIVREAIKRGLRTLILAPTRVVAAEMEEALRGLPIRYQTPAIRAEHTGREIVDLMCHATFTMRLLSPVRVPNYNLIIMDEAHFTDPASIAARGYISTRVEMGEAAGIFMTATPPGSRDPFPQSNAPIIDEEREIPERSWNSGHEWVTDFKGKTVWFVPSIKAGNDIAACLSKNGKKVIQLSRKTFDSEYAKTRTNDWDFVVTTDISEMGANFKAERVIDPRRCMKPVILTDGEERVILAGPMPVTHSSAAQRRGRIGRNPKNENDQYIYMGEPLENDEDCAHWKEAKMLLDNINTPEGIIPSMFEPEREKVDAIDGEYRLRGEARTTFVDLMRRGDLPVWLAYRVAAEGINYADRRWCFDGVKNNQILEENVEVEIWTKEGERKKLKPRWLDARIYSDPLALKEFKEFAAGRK

For `c1cnc2cc3c(cc2n1)C1CNCC3C1` [varenicline], the IC50 was over 20 µM.
